Calls of active or inactive are those of the source. The rule behind the calls is not given here.
What was measured:
A-375 = assay: Antiproliferative activity against human A375 cells assessed as cell growth inhibition incubated for 48 hrs by MTT assay; assay type: functional, cell-based; settings: A-375, 48 h
SK-MEL-28 [1] = assay: Antiproliferative activity against human SK-MEL-28 cells assessed as cell growth inhibition incubated for 48 hrs by MTT assay; assay type: functional, cell-based; settings: SK-MEL-28, 48 h
SK-MEL-5 = assay: Antiproliferative activity against human SK-MEL-5 cells assessed as cell growth inhibition incubated for 48 hrs by MTT assay; assay type: functional, cell-based; settings: SK-MEL-5, 48 h
SK-MEL-28 [2] = assay: Inhibition of colony formation in human SK-MEL-28 cells at 5 to 100 uM supplemented with fresh medium containing compound every 72 hrs for 2 weeks by crystal violet staining based assay; assay type: functional, cell-based
SK-MEL-28 [3] = assay: Cell cycle arrest in human SK-MEL-28 cells assessed as accumulation at G2/M phase at 5 nM after 24 hrs by […] dye staining based fluorescence assay; assay type: functional

| SMILES | IC50 (A-375) | IC50 (SK-MEL-28 [1]) | IC50 (SK-MEL-5) | inhibition (SK-MEL-28 [2]) | Activity (SK-MEL-28 [3]) |
| --- | --- | --- | --- | --- | --- |
| COc1ccccc1OCCNC[C@H](O)COc1cccc2[nH]c3ccccc3c12 | 14.7 µM | 10.5 µM | 7.04 µM | – | – |
| COc1ccccc1OCCNCCCOc1cccc2[nH]c3ccccc3c12 | 6.88 µM | 6.66 µM | 6.18 µM | – | – |
| c1ccc(Nc2cccc(OCCCNCc3ccc(-c4ccccc4)cc3)c2)cc1 | 2.31 µM | 3.8 µM | 4.72 µM | – | – |
| c1ccc(N2CCN(CCCOc3cccc4[nH]c5ccccc5c34)CC2)cc1 | 22.6 µM | 19.2 µM | 36.9 µM | – | – |
| Cc1ccc2cccc(NCCCOc3cccc4[nH]c5ccccc5c34)c2n1 | 22.3 µM | 19.8 µM | 16.4 µM | – | – |
| COc1ccccc1N1CCN(CCCOc2cccc3[nH]c4ccccc4c23)CC1 | 10.8 µM | 11.4 µM | 13.7 µM | – | – |
| O[C@@H](CNCc1ccc(-c2ccccc2)cc1)COc1cccc2[nH]c3ccccc3c12 | 5.22 µM | 4.99 µM | 2.69 µM | – | – |
| c1ccc(N2CCN(CCCOc3cccc4[nH]c5ccccc5c34)CC2)nc1 | 13.9 µM | 15.5 µM | 11.5 µM | – | – |
| c1ccc(-c2ccc(CNCCCOc3cccc4[nH]c5ccccc5c34)cc2)cc1 | 6.59 µM | 4.39 µM | 4.28 µM | – | – |
| CC(C)NCC(O)COc1cccc2ccccc12 (centres undefined) | – | – | – | Active | – |
| COc1cc2c(c(OC)c1OC)-c1ccc(OC)c(=O)cc1[C@@H](NC(C)=O)CC2 | – | – | – | – | Active |
| COc1ccccc1OCCNCC(O)COc1cccc2ccccc12 (racemic) | 18.9 µM | 13.5 µM | 10.1 µM | – | – |
| COc1ccccc1N1CCN(CC(O)COc2cccc3[nH]c4ccccc4c23)CC1 (racemic) | 13.9 µM | 14.1 µM | 13.6 µM | – | – |
| OC(COc1cccc2[nH]c3ccccc3c12)CN1CCN(c2ccccc2)CC1 (racemic) | 16.3 µM | 18.5 µM | 17 µM | – | – |
| CC(C)NCC(O)COc1ccc(-c2ccccc2)cc1 (racemic) | 11 µM | 11.9 µM | 12 µM | – | – |
| OC(CNc1ccc(-c2ccccc2)cc1)COc1cccc2[nH]c3ccccc3c12 (racemic) | 13.5 µM | 12.5 µM | 13.9 µM | – | – |

From ChEMBL document CHEMBL4627350, “Drug repurposing and rediscovery: Design, synthesis and preliminary biological evaluation of 1-arylamino-3-aryloxypropan-2-ols as anti-melanoma agents” (Bioorg Med Chem, 2020)
